What all share (experiment): NCI anticancer screen, dose series, 48 h
Experiment [1] relates to SNB-19 CNS.
Experiment [2] deals with HOP-92 NSCLC.
Experiment [3] has as its system SK-MEL-28 melanoma.
Experiment [4] deals with SK-MEL-5 melanoma.
Experiment [5] deals with IGROV1 ovarian.
The test system of experiment [6] is OVCAR-5 ovarian.
Experiment [7] deals with MDA-N.
Experiment [8] has as its system MCF7 breast.
For experiment [9], the system named is MDA-MB-231 breast.
The test system of experiment [10] is RPMI-8226 leukemia.

Molecules are shown by their SMILES.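 Interpolation was linear, between the two tested concentrations surrounding the appropriate level; five concentrations were tested over 48 hours in 96-well plates. Here, GI50 denotes the concentration required for 50% inhibition of growth. TGI marks complete inhibition of growth.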

As for `N=C(N)n1[nH]c2c(c1=O)CCC2`, the TGI in experiment [1], in experiment [2], in [3], in experiment [4], in [5] and in experiment [6] was above 100 µM each time. Further, the TGI in [7], in experiment [8] and in experiment [9] was above 100 µM in each case.

As for `Cc1ccc(NC(=O)c2cccc([N+](=O)[O-])c2O)c(C)c1`, the TGI was above 100 µM in experiment [1]; above 100 µM in [3]; above 100 µM in experiment [5]; 92.7 µM in experiment [10]; above 100 µM in experiment [6].

Turning to `C[C@H](CC[C@@H](O)C(C)(C)O)[C@H]1CC[C@@]2(C)[C@@H]3CC=C4[C@@H](CC[C@H](OC5OC(CO)C(O)C(O)C5O)C4(C)C)[C@]3(C)C(=O)C[C@]12C` (some centres undefined), the TGI is above 100 µM in experiment [1]; above 100 µM in experiment [2]; 77.8 µM in experiment [3]; above 100 µM in experiment [4]; 44.3 µM in experiment [5]; above 100 µM in [6]. The TGI in experiment [7], in experiment [8] and in experiment [9] was above 100 µM each time.

On to `CC1=CC(=O)c2cccc(NC3=NCCO3)c21`, for which the TGI in experiment [1] is above 100 µM; in experiment [2], 77.7 µM; in experiment [3] it was above 100 µM; in experiment [4] it was 42.3 µM; in experiment [5], above 100 µM; in experiment [10], above 100 µM. The TGI in experiment [6], in experiment [7] and in experiment [9] was above 100 µM throughout.

For `COCC(=O)[C@]1(O)Cc2c(O)c3c(c(O)c2[C@@H](OC2CC(N)C(O)C(C)O2)C1)C(=O)c1c(OC)cccc1C3=O` (some centres undefined), the TGI is 2.45 µM in experiment [1]; 1.12 µM in [2]; 0.398 µM in [3]; 0.228 µM in experiment [4]; 6.83 µM in [5]; 0.564 µM in experiment [10]. Further, the figures for the TGI in experiment [6], in experiment [7] and in [9] were 1.04 µM, 0.249 µM and 2.97 µM, respectively.

As to `COC(=O)C1=C(OC(=O)/C(=C/c2ccc(Cl)cc2)c2ccccc2)C(C(=O)OC)[C@@]2(O)[C@@H](C(=O)OC)[C@H](C)C[C@@H]1[C@@H]2C(=O)OC` (some centres undefined), the TGI in [1], in [2], in experiment [3], in experiment [4], in experiment [5] and in experiment [10] was above 100 µM each time. Moreover, the TGI in experiment [6], in experiment [8] and in experiment [9] was above 100 µM in each case.

On to `N#CSCC1COc2ccccc2O1` (centres undefined), for which the TGI in [1], in experiment [3], in experiment [4], in [5], in experiment [10] and in experiment [6] was above 10 µM in each case. In addition, the TGI in experiment [7], in experiment [8] and in experiment [9] was above 10 µM in each case.

For `CCCCNC(=S)/N=C/c1c(O)c2ccccc2oc1=O`, the TGI in experiment [1], in [2], in experiment [3], in experiment [4], in experiment [5] and in experiment [6] was above 100 µM in each case. For the same compound, the TGI in [7], in [8] and in experiment [9] was above 100 µM throughout.

For the compound `O=C1CCC2=C(CCC2)N1CCc1ccc2c(c1)OCO2`, the TGI is above 100 µM in experiment [1]; above 100 µM in experiment [3]; above 100 µM in experiment [4]; above 100 µM in experiment [5]; 45.1 µM in experiment [10]; above 100 µM in experiment [6]. Moreover, the TGI in experiment [7], in [8] and in [9] was above 100 µM each time.

With `Cc1nnc(N)nc1/C=C\c1cccs1`, the TGI in [1] is above 100 µM; in [2], 97.8 µM; in [3], above 100 µM; in experiment [5], 28.7 µM; in experiment [10], 55.4 µM; in [6] it was 68.3 µM. The TGI in experiment [8] and in experiment [9] was above 100 µM each time.

In the case of `O=C(/C=C/c1cccs1)c1ccsc1`, the TGI in [1] was 50.8 µM; in experiment [3] it was 81.7 µM; in experiment [4], 36 µM; in experiment [5], 73.6 µM; in experiment [10] it was 45.4 µM; in experiment [6] it was above 100 µM. Besides, the values for the TGI in [7], in experiment [8] and in experiment [9] were 36.3 µM, above 100 µM and above 10 µM, respectively.

Turning to `CN(C)CCCNC(=O)c1cc(NC(=O)c2cc(NC(=O)c3cc(NC(=O)CCCn4ccc(CO)c4CO)cn3C)cn2C)cn1C`, the TGI in [1] is above 100 µM; in experiment [2], above 100 µM; in [3] it was 42.1 µM; in experiment [4] it was 12.7 µM; in [5], above 100 µM; in experiment [6], above 100 µM. The TGI in [7], in experiment [8] and in experiment [9] was above 100 µM in each case.

For `Cc1cc(NC2=NCCO2)c2c(c1C)CCCC2`, the TGI in [1] is 38.8 µM; in experiment [2], 13.6 µM; in experiment [3], 40.7 µM; in [4] it was 31.5 µM; in experiment [5], above 100 µM; in experiment [10], 45.3 µM. The TGI in [6] was 57.1 µM; in experiment [8], 31 µM; in [9], 77.9 µM.

Take `NCCCn1c2c(c3ccc([N+](=O)[O-])cc3c1=O)C(=O)c1cc3c(cc1-2)OCO3`: the GI50 is 2.6 µM in experiment [2]; 0.0273 µM in experiment [4]; 0.478 µM in experiment [5]; below 0.017 µM in experiment [10]; 0.44 µM in [9]. Besides, the TGI in [2] was 11.1 µM; in experiment [4], 0.247 µM; in [5], above 100 µM; in experiment [10] it was 2.14 µM; in experiment [9], 0.935 µM.

As for `O=C(c1ccc(Cl)cc1)N(C(=S)N1CCN(c2ccccn2)CC1)c1ccccc1`, the TGI in experiment [1], in [2], in experiment [3], in experiment [4], in [5] and in [10] was above 100 µM each time. This compound came in with a TGI in experiment [6] above 100 µM.

For the origin of these results see PubChem BioAssay (NCI).
